Laboratory results from patent US12084709B2, “Screening method” (Mars, Incorporated, priority 2018, dated 2024).

System: Porphyromonas macacae JN713359
Test: mBB fluorescent C-S lyase / VSC production method with whole bacteria
Format: cell-based
Conditions: 0.12% CHX treatment; relative to control
Procedure: The C-S lyase activity was measured in order to quantitate VSC production by the bacteria. This was conducted by using monobromobiname, a fluorescent probe for thiol. The bacteria were washed and resuspended in Tris buffer (pH 8.5) at OD=1.0. The 250 μL reaction mix contained 4 mM benzylcysteine, 100 μM monobromobimane, 10 μM pyridoxal 5′-phosphate, 50 μL of the bacteria suspension and was made up to 250 μL with tris buffer (pH 8.5). The mix was incubated anaerobically for 45 minutes at 37° C. The C-S lyase activities were determined based on fluorescence at 490 nm (em) upon excitation at 385 nm (ex). All measurements were performed in biological duplicate with each repeated in technical triplicates, creating total of 6 data points per strain. Blank measurements (containing buffer instead of crude extract) were used to correct the values derived from the substrate. The standard curve was measured using Benzyl mercaptan at 8-128 μM. The protein concentration of the bacteria suspension was determined by means of a commercially available BCA kit in accordance with the manufacturer's method. The specific C-S lyase activity was calculated by dividing the increase in fluorescence equivalent to Benzyl mercaptan concentration by the total protein content of the suspension in mg and expressed as unit which was defined as “nM Benzyl mercaptan release/μg protein/minute”. […]

In the case of `[H]/N=C(\N/C(=N/[H])NCCCCCCNC(=N)NC(=N)Nc1ccc(Cl)cc1)Nc1ccc(Cl)cc1` [CHX, Chlorhexidine, reference compound], the “quantity of VSC produced as the control” value is reported as 25%.
